# Experimental data published in ChEMBL document CHEMBL3414499, “Characterization of two distinct structural classes of selective aldehyde dehydrogenase 1A1 inhibitors” (J Med Chem, 2015).
# Calls of active or inactive are those of the source. The calls are words filed in the database; no cut-off is given here.
# Assays:
# [1] = molecular target: T1, Aldehyde dehydrogenase, dimeric NADP-preferring (Homo sapiens, UniProt P30838); test: Inhibition of recombinant human ALDH3A1 using benzaldehyde as substrate preincubated for 2 mins with NAD+ followed by substrate addition by UV-Vis spectrophotometric analysis
# T1 sequence (P30838 whole entry): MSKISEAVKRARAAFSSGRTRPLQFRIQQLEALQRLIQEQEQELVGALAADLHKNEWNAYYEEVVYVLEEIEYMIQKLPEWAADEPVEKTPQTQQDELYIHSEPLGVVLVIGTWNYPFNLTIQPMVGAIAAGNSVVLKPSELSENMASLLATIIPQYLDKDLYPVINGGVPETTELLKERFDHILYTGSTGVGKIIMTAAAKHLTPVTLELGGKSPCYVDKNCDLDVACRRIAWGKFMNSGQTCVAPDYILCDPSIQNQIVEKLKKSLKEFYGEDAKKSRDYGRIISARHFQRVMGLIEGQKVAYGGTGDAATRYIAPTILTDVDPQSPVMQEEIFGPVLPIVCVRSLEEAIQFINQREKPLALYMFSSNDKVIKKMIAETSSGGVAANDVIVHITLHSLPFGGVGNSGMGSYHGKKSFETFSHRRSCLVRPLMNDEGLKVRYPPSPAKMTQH
# [2] = molecular target: T2, Aldehyde dehydrogenase, mitochondrial (Homo sapiens) (UniProt P05091); test: Effect on recombinant human ALDH2 using propionaldehyde as substrate at 20 uM preincubated for 2 mins with NAD+ followed by substrate addition by UV-Vis spectrophotometric analysis
# T2 sequence (whole entry): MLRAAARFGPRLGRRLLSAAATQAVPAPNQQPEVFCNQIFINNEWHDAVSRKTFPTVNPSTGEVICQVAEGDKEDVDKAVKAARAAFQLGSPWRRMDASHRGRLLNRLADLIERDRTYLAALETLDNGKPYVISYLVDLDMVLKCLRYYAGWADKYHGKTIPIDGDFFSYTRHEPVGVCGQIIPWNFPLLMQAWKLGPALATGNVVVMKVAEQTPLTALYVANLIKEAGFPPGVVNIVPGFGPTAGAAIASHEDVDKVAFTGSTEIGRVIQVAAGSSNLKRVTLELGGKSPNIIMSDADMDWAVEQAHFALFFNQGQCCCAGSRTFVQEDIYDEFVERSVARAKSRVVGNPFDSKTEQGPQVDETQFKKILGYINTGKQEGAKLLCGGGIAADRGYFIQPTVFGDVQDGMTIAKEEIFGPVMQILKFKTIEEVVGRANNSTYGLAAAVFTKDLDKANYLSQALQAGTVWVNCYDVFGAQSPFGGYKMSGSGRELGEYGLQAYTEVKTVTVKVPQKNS
# [3] = molecular target: T3, Retinal dehydrogenase 2 (Homo sapiens) (UniProt O94788); test: Effect on recombinant human ALDH1A2 using propionaldehyde as substrate at 20 uM preincubated for 2 mins with NAD+ followed by substrate addition by UV-Vis spectrophotometric analysis
# T3 sequence (whole entry): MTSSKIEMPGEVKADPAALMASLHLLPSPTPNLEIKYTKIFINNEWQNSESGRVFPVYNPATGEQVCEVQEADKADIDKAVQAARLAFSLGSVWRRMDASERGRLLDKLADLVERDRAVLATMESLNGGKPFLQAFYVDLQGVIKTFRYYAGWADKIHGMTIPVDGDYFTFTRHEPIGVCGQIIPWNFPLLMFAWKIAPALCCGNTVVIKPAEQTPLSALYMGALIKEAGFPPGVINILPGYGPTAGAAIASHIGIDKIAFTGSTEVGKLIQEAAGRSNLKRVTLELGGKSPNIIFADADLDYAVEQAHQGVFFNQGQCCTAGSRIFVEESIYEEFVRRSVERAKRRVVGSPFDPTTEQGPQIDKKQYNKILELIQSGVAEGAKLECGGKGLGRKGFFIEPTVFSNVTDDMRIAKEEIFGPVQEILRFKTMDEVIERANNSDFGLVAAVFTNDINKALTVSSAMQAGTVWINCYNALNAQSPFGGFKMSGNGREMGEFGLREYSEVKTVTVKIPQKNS
# [4] = molecular target: T4, Aldehyde dehydrogenase, dimeric NADP-preferring (Homo sapiens) (UniProt P30838); test: Effect on recombinant human ALDH3A1 using benzaldehyde as substrate at 20 uM preincubated for 2 mins with NAD+ followed by substrate addition by UV-Vis spectrophotometric analysis
# T4 sequence (whole entry): T1 sequence (P30838 whole entry)
# [5] = molecular target: T5, Aldehyde dehydrogenase X, mitochondrial (Homo sapiens) (UniProt P30837); test: Effect on recombinant human ALDH1B1 using propionaldehyde as substrate at 20 uM preincubated for 2 mins with NAD+ followed by substrate addition by UV-Vis spectrophotometric analysis
# T5 sequence (whole entry): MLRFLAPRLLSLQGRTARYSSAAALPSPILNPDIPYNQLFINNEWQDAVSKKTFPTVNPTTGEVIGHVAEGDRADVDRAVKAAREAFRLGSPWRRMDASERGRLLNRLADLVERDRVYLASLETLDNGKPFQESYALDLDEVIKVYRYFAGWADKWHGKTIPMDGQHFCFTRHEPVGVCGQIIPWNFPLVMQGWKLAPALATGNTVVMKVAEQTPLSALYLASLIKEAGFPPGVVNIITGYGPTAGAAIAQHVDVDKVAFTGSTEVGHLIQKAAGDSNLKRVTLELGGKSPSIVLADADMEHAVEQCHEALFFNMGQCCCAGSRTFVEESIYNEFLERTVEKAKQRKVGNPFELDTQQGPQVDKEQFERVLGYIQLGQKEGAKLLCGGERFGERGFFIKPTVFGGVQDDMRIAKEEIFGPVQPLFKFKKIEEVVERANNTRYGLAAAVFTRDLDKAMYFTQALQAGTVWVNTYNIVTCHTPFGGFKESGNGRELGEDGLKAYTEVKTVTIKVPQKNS
# [6] = molecular target: T6, Succinate-semialdehyde dehydrogenase, mitochondrial (Homo sapiens) (UniProt P51649); test: Effect on human ALDH5A1 at 20 uM preincubated for 2 mins with NAD+ followed by aldehyde substrate addition
# T6 sequence (whole entry): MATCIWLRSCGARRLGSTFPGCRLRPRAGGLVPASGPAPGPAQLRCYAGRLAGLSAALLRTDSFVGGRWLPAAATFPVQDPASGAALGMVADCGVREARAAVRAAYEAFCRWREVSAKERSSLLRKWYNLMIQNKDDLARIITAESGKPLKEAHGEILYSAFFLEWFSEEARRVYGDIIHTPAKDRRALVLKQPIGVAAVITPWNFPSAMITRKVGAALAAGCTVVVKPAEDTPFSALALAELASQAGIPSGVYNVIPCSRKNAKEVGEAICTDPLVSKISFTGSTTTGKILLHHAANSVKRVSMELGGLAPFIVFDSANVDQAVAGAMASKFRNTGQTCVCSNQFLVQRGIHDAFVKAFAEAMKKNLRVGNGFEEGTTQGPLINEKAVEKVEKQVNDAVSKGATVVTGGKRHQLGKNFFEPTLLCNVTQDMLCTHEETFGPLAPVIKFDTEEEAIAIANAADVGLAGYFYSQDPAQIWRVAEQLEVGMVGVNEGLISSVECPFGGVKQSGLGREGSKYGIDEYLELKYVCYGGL
IC50 [1],Activity [2],Activity [3],Activity [4],Activity [5],Activity [6],Structure (SMILES)
> 100 µM,–,–,–,–,–,Cn1c(=O)c2c(nc(SCC(N)=O)n2Cc2ccccc2F)n(C)c1=O
–,inactive,inactive,inactive,inactive,inactive,CC(C)CCn1c(CN2CCN(C(=O)c3ccco3)CC2)nc2c1c(=O)n(C)c(=O)n2C
